Source: patent publication US12584906B2, “Coating agent for inducing differentiation of pluripotent stem cells into brain microvascular endothelium-like cells and use thereof” (PUBLIC UNIVERSITY CORPORATION NAGOYA CITY UNIVERSITY, priority 2020, dated 2026)

Columns and labels:
P-gp = molecular target: T1, P-gp (Homo sapiens, UniProt P08183); experiment: Substrate uptake test, P-gp function (rhodamine 123 with or without cyclosporine A); assay type: cell-based; conditions: 10 μM rhodamine 123, 10 μM cyclosporine A, 60 minutes at 37° C., FIG. 9
T1 construct: endogenous in cells; host or cells: Matrigel-iBMECs or LN221F-iBMECs derived from 610B1 strain (iPS cells), day 10 of differentiation
T1 sequence (P08183 whole entry): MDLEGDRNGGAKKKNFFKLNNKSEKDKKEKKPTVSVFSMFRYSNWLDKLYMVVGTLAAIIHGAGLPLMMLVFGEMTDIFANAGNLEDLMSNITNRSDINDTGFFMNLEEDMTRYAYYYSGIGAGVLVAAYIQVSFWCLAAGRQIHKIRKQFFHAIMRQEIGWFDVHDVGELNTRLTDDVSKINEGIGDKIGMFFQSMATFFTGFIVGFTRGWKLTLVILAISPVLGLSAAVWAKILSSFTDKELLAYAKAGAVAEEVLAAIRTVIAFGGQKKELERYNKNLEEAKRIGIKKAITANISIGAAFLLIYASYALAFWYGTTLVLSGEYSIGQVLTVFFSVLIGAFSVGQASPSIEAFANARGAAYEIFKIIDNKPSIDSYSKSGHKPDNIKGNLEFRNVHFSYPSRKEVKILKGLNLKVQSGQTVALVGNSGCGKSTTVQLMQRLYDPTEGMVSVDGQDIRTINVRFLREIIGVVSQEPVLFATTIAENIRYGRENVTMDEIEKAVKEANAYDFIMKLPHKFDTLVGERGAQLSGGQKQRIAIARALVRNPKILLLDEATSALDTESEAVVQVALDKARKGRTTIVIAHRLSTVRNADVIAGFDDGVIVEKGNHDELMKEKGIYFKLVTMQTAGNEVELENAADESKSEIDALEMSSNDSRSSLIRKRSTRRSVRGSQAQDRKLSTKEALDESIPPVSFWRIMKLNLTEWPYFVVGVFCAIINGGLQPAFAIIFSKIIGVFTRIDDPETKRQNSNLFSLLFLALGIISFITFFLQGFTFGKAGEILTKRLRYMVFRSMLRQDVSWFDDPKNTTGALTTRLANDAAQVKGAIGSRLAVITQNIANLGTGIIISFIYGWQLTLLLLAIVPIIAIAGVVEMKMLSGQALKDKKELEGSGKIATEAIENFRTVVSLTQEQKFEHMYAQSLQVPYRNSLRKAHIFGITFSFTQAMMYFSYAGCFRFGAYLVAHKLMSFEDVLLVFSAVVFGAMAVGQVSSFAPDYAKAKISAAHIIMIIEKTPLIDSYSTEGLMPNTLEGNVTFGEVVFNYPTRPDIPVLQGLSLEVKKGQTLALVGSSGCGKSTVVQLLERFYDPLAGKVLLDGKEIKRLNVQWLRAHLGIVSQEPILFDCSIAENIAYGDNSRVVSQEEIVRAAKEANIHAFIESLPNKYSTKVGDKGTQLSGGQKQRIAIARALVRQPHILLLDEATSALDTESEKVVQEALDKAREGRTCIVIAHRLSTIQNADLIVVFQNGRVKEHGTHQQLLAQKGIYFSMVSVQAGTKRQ
Experimental: (§1) For functional analysis of P-gp and BCRP as efflux transporters, Matrigel-iBMECs or LN221F-iBMECs (on day 10 of differentiation) derived from 610B1 strain were tested for substrate uptake. As the substrate, rhodamine 123 or Hoechst 33342 was used. The culture medium was removed and the cells on a 96-well plate were pre-incubated in a transport buffer for 15 minutes at 37° C. Note that the number of samples was 6. The cells were incubated, in the presence or absence of 10 μM cyclosporine A (CsA), an inhibitor of P-gp, or 20 μM Ko 143, an inhibitor of BCRP, in a transport buffer containing 10 μM rhodamine 123 or 10 μM Hoechst 33342 for 60 minutes at 37° C. The cells were then washed three times with PBS and lysed in PBS containing 5 w/v % Triton X-100. The fluorescence intensities of rhodamine 123 or Hoechst 33342 were measured with a Synergy HTX multimode plate reader and analyzed by Gen5 data analysis software.

[1] = system: iBMECs derived from strain 610B1; experiment: Analysis of expression levels of BMEC marker genes by RT-q PCR; assay type: cell-based, human; conditions: CDHS, MDR1, BCRP, ZO-1, Occludin, GLUT1, LAT1; day 10 of differentiation, corrected with HPRT1, FIG. 7
Experimental: Extraction was performed according to the attached instructions of Agencourt (registered trademark) RNAdvance Tissue Kit.
Complementary DNA (cDNA) was synthesized using ReverTra Ace (registered trademark) qPCR RT Master Mix according to the attached instructions.
The levels of gene expression in Matrigel-iBMECs or LN221F-iBMECs derived from strain 610B1 (on day 10 of differentiation) or human-derived primary BMECs (hereinafter, also referred to as “hBMECs”) were analyzed by RT-q PCR. The number of samples for Matrigel-iBMECs or LN221F-iBMECs was 3, and the number of samples for hBMECs was 1. RT-q PCR was performed with KAPA SYBR Fast qPCR Kit while using cDNA as a template according to the attached instructions. The results obtained were corrected using HPRT1 as an internal control. The relative expression levels of mRNA in LN221F-iBMECs or hBMECs were determined based on the expression levels of mRNA in Matrigel-iBMECs. […]

[2] = system: iBMECs derived from 648A1 strain; experiment: Time-course change in TEER values, 648A1 strain; assay type: cell-based, human; conditions: FIG. 4
Experimental: (§2) A coating layer was formed using each of the above-described coating agents. Matrigel was diluted 30-fold with a maintenance medium for human iPS cells on ice, poured onto a well plate, and allowed to stand at 37° C. for 30 minutes or longer to form a coating layer. FBN, VTN-N, LN221F, LN411F, or LN511F was diluted with PBS so as to be 1 μg/cm^2, poured onto a well plate, and allowed to stand at 37° C. for 1 hour to 2 hours to form a coating layer. In addition, a mixture of Fibronectin and Collagen type IV was diluted with PBS so as to be 100 μg/mL and 400 μg/mL, respectively, poured onto a Transwell insert, and allowed to stand at 37° C. for 2 hours or longer to form a coating layer. […]
(§3) TEER values of iBMECs (on day 10 of differentiation) derived from 610B1 strain, which cells had been induced and differentiated on Matrigel or FBN, VTN-N, LN221F, LN411F, or LN511F, were measured. The number of samples was 3, and relative TEER values of iBMECs induced and differentiated on FBN, VTN-N, LN221F, LN411F, or LN511F were determined based on the TEER values of iBMECs induced and differentiated on Matrigel (hereinafter, also referred to as “Matrigel-iBMECs”). […] The number of samples was set to 6, and the time-course change of the TEER values was determined. The TEER values were measured using a Millicell ERS-2 (chopstick type) according to the attached instructions. […]

[3] = system: iBMECs derived from 610B1 strain; experiment: Test for permeability of FD4 or LY, 610B1 strain; assay type: cell-based, human; conditions: 60 minutes, day 10 of differentiation
Experimental: (§4) FD4 or LY permeability was tested on Matrigel-iBMECs and LN221F-iBMECs derived from each of 610B1 or 648A1 strain. The number of samples was 6. On day 10 of differentiation, the culture medium was replaced with a transport buffer (HBSS containing 10 mM HEPES solution), and the cells were cultured at 37° C. for 20 minutes. The transport buffer containing 1 mg/mL FD4 or 300 μM LY was added to the apical side. After incubation at 37° C. for 60 minutes, 100 μL of the solution was collected from the basolateral side. The volume of transport buffer was 300 μL on the apical side and 800 μL on the basal side. The fluorescence intensity of FD4 or LY was measured with a Synergy HTX multimode plate reader and analyzed by Gen5 data analysis software.

[4] = system: iBMECs derived from 610B1 strain; experiment: Time-course change in TEER values, 610B1 strain; assay type: cell-based, human; conditions: FIG. 3
Experimental: as §2, §3

[5] = system: iBMECs derived from 610B1 strain; experiment: Protein expression of BMEC markers by immunostaining; assay type: cell-based, human; conditions: CDH5, P-gp, BCRP, ZO-1, Occludin, Claudin 5; day 10 of differentiation, FIG. 8
Experimental: Matrigel-iBMECs or LN221F-iBMECs (on day 10 of differentiation) derived from 610B1 strain were analyzed by immunostaining in order to analyze the expression levels and localizations of BMEC marker proteins. For Zonula Occludens-1 (ZO-1) and Occludin, the cells on a 96-well plate were fixed in 4 w/v % paraformaldehyde for 15 minutes at room temperature, washed twice with glycine-containing PBS, and then permeabilized with 0.1 w/v % Triton X-100-containing PBS for 25 minutes at room temperature. After blocking for 20 min at room temperature with 5% donkey serum, each primary antibody was used for reaction for 2 hours at room temperature. After washed three times with PBS, the cells were reacted with the secondary antibody, which had been diluted 200-fold, for 60 minutes at room temperature. At this time, 1 μg/mL DAPI as a nuclear staining reagent was mixed in the reaction at the same time. Thereafter, the cells were washed three times with PBS, and were analyzed with an Operetta high content imaging system. […]

BCRP = molecular target: T2, BCRP (Homo sapiens, UniProt Q9UNQ0); experiment: Substrate uptake test, BCRP function (Hoechst 33342 with or without Ko 143); assay type: cell-based; conditions: 10 μM Hoechst 33342, 20 μM Ko 143, 60 minutes at 37° C., FIG. 10
T2 construct: endogenous in cells; host or cells: Matrigel-iBMECs or LN221F-iBMECs derived from 610B1 strain (iPS cells), day 10 of differentiation
T2 sequence (Q9UNQ0 1-655): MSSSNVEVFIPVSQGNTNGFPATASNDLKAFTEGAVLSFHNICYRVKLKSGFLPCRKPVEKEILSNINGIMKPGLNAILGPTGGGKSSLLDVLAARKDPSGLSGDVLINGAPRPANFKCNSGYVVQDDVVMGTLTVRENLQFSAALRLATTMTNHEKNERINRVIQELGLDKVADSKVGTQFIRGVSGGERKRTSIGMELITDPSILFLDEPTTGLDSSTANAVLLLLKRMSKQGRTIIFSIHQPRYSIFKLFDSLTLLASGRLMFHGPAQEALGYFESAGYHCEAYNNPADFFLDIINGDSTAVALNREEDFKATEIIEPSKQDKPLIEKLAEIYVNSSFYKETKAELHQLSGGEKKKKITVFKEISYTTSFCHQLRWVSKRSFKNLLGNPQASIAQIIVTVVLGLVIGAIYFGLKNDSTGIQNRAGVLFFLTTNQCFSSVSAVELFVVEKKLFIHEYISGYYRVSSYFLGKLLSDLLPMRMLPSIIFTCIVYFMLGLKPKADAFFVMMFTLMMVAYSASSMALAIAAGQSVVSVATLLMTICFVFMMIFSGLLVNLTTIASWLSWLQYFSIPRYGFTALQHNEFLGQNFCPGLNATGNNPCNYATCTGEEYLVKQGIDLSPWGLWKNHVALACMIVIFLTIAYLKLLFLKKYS
Experimental: as §1

[6] = system: iBMECs derived from 610B1 strain; experiment: Relative TEER values of iBMECs induced and differentiated on each coating layer (day 10 of differentiation); assay type: cell-based, human; conditions: for TEER value compared with iBMECs induced and differentiated on Matrigel: coating 1 μg/cm^2, FIG. 2
Experimental: A coating layer was formed using each of the above-described coating agents. Matrigel was diluted 30-fold with a maintenance medium for human iPS cells on ice, poured onto a well plate, and allowed to stand at 37° C. for 30 minutes or longer to form a coating layer. FBN, VTN-N, LN221F, LN411F, or LN511F was diluted with PBS so as to be 1 μg/cm^2, poured onto a well plate, and allowed to stand at 37° C. for 1 hour to 2 hours to form a coating layer. In addition, a mixture of Fibronectin and Collagen type IV was diluted with PBS so as to be 100 μg/mL and 400 μg/mL, respectively, poured onto a Transwell insert, and allowed to stand at 37° C. for 2 hours or longer to form a coating layer.
FIG. 1 is a scheme illustrating a protocol for differentiating human iPS cells into iBMECs. […] The differentiation induction was started in a state in which at the time of passage, the cells were seeded on a culture dish coated with each coating agent and cultured in StemSure hPSC medium containing […] FGF2 until the proportion of undifferentiated colonies reached about 60 to 70% (day 0 of differentiation). […]
TEER values of iBMECs (on day 10 of differentiation) derived from 610B1 strain, which cells had been induced and differentiated on Matrigel or FBN, VTN-N, LN221F, LN411F, or LN511F, were measured. The number of samples was 3, and relative TEER values of iBMECs induced and differentiated on FBN, VTN-N, LN221F, LN411F, or LN511F were determined based on the TEER values of iBMECs induced and differentiated on Matrigel (hereinafter, also referred to as “Matrigel-iBMECs”). In addition, for each of 610B1 strain or 648A1 strain, the TEER values of Matrigel-iBMECs or iBMECs induced and differentiated on LN221F (hereinafter, also referred to as “LN221F-iBMECs”) were measured from day 1 after seeding (day 9 of differentiation) to day 10 after seeding (day 18 of differentiation). The number of samples was set to 6, and the time-course change of the TEER values was determined. The TEER values were measured using a Millicell ERS-2 (chopstick type) according to the attached instructions. […]

[7] = system: iBMECs derived from 648A1 strain; experiment: Test for permeability of FD4 or LY, 648A1 strain; assay type: cell-based, human; conditions: 60 minutes, day 10 of differentiation
Experimental: as §4

Substance	accumulation of substrate in the presence of the inhibitor versus absence (P-gp function) (P-gp)	mRNA expression level of BMEC markers compared with Matrigel-iBMECs [1]	TEER value compared with Matrigel-iBMECs over a long period of time ([2]; day 1 to day 10 after seeding)	TEER value ([2]; over a long period of time)	permeability coefficient of LY compared with Matrigel-iBMECs ([3]; 300 μM LY apical, FIG. 6)	permeability coefficient of FD4 compared with Matrigel-iBMECs ([3]; 1 mg/mL FD4 apical, FIG. 5)	TEER value compared with Matrigel-iBMECs over a long period of time ([4]; day 1 to day 10 after seeding)	TEER value ([4]; over a long period of time)	protein expression levels and localizations of BMEC markers compared with Matrigel-iBMECs [5]	accumulation of substrate in the presence of the inhibitor versus absence (BCRP function) (BCRP)	relative TEER value (Matrigel-iBMECs set to 1.0) ([6]; FIG. 2)	TEER value compared with iBMECs induced and differentiated on Matrigel [6]	permeability coefficient of LY compared with Matrigel-iBMECs ([7]; 300 μM LY apical, FIG. 6)	permeability coefficient of FD4 compared with Matrigel-iBMECs ([7]; 1 mg/mL FD4 apical, FIG. 5)
Laminin-221 fragment [LN221F]	larger	almost equivalent	higher TEER value	≥ 1000 Ω×cm^2	lower permeability coefficient	lower permeability coefficient	higher TEER value	≥ 1000 Ω×cm^2	almost equivalent	larger	about 2 times	higher TEER value	lower permeability coefficient	lower permeability coefficient
N-terminal Vitronectin [VTN-N]												higher TEER value		
